In patent US10813868B2, “Method of improving hair volume” (priority 2014, dated 2020):

Legend:
[1] = Hair switch volume test (switches dosed, combed straight, dried overnight, image projection measured); settings: for % benefit: 2% solution; for Volume: same batch of switches, 0.2 ml of 2% solution; for Volume / volume (projection of the switch image on to the screen): combed straight, dried overnight; for volume (projection of the switch image on to the screen): 0.2 ml of 2% solution per 2 g switch
Description: Dark brown European wavy #6 switches (from 2 different batches) of length 25 cm and weight 2 g were dosed with 0.2 ml each of 2% glucosamine.HCl salt solution. Control switches were wetted with water. All switches were combed straight and left to dry overnight. When dry the switches were combed straight and pictures taken. […] (Here volume refers to the projection of the switch image on to the screen and is given in mm^2).
Dark brown European wavy #6 switches of length 25 cm and weight 2 gms (from the same batch of switches), were dosed with 0.2 ml each of 2% solutions of various mono and diglucosamine salts. Control switches were treated with water.
All switches were combed straight and left to dry overnight.
When dry the switches were combed straight and pictures taken. […] (Here volume refers to the projection of the switch image on to the screen and is given in mm^2). The percentage benefit (i.e. increase in volume) with respect to control (water) is also given.

[2] = Half head test on a mannequin head, styled with a blow dryer; settings: 2% solution on left half vs water on right half; picture the day following styling
Description: FIG. 1 is an image of a mannequin head taken the day following a test performed with one half (right hand side) treated with water and the other half (left hand side) treated with 2% glucosamine.HCI salt solution and followed by styling with a blow dryer. A half head test on a mannequin head was performed with one half (right hand side) treated with water and the other half (left hand side) treated with 2% glucosamine.HCl salt solution. The head was styled with a blow dryer for volume up benefit. FIG. 1 is a picture taken the day following the styling.

[3] = Example 2, increase in volume with respect to control (water)

Molecule	% benefit [1, 3]	Volume ([1]; Example 2)	further results
N[C@H]1C(O)O[C@H](CO)[C@@H](O)[C@@H]1O.O=C(O)/C=C/C(=O)O (some centres unmarked) [glucosamine fumarate]	18.5%	16802 mm^2	
NCC(=O)O.N[C@H]1C(O)O[C@H](CO)[C@@H](O)[C@@H]1O (some centres unmarked) [glucosamine glycinate]	39.2%	19748 mm^2	
CC(O)C(=O)O.N[C@H]1C(O)O[C@H](CO)[C@@H](O)[C@@H]1O (some centres unmarked) [glucosamine lactate]	33.6%	18944 mm^2	
N[C@H]1C(O)O[C@H](CO)[C@@H](O)[C@@H]1O.O=C(O)/C=C\C(=O)O (some centres unmarked) [glucosamine maleate]	30.1%	18450 mm^2	
N[C@H]1C(O)O[C@H](CO)[C@@H](O)[C@@H]1O.O=C(O)CC(=O)O (some centres unmarked) [glucosamine malonate]	21.6%	17244 mm^2	
N[C@H]1C(O)O[C@H](CO)[C@@H](O)[C@@H]1O.O=C(O)CCC(=O)O (some centres unmarked) [glucosamine succinate]	13.5%	16102 mm^2	
Cl.N[C@H]1C(O)O[C@H](CO)[C@@H](O)[C@@H]1O (some centres unmarked) [glucosamine•HCl, glucosamine hydrochloride]			volume (projection of the switch image on to the screen) ([1]; Batch 1 switches): 14236 mm^2; % benefit ([1]; Batch 1 switches, increase in volume vs water control): 6.7%; volume (projection of the switch image on to the screen) ([1]; Batch 2 switches): 16851 mm^2; % benefit ([1]; Batch 2 switches, increase in volume vs water control): 7.3%; volumising benefit (visual comparison) [2]: clearly evident
diglucosamine adipate	28.3%	18189 mm^2	
diglucosamine aspartate	39.5%	19780 mm^2	
diglucosamine fumarate	38.0%	19575 mm^2	
diglucosamine glutamate	38.0%	19575 mm^2	
diglucosamine glutarate	35.6%	19234 mm^2	
diglucosamine maleate	34.3%	19053 mm^2	
diglucosamine malonate	34.3%	19053 mm^2	
diglucosamine pimelate	27.1%	18021 mm^2	
diglucosamine succinate	20.8%	17136 mm^2	
glucosamine 2-pyrrolidone-5-carboxylate [glucosamine PCA]	37.5%	19505 mm^2	
glucosamine aspartate	30.9%	18566 mm^2	
glucosamine glutamate	30.9%	18563 mm^2	
glucosamine glutarate	9.1%	15475 mm^2	
glucosamine nicotinate	41.6%	20087 mm^2	
glucosamine pimelate	13.4%	16088 mm^2	
